According to patent publication US5360803A, “Composition and method for treating cancer” (Dan Farber Cancer Institute, priority 1992, dated 1994):
Where two headings read alike, the source gives them in different places.

What was measured:
CX-1 cells = assay: selective killing assay, colony number reduced to 50% of control, human colon carcinoma cell line CX-1; format: cell-based; conditions: for Selectivity (ratio of IC50 for CV-1 and IC50 for CX-1): CV-1/CX-1; for CX-1 (IC50) / IC50: human colon carcinoma, 24 hours treatment, colony count after 7 to 10 days;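 as to all read-outs here: colonies stained with crystal violet and counted, control cells given medium alone, exposure at 37 °C, normal monkey kidney epithelial CV-1 cells as the non-cancer comparator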
Experimental: (§2) Human colon carcinoma cell line CX-1 or normal monkey kidney epithelial cell line CV-1 was chosen as representatives of cancer cells and normal cells, respectively. […] CX-1 cells (2,000 cells/well) and CV-1 cells (1,000 cells/well) were plated in 24-well plastic culture plates. […] The control received culture media only. Cells were treated with compounds of General Formulas (I) to (V) at 37° C. for 24 hours. After rinsing with fresh culture medium three times, the cells were further incubated at 37° C. for 7 to 10 days. Cell colonies were fixed and stained with 2% crystal violet in 70% ethanol for 10 minutes and rinsed in water. […] The selectivity is defined as the ratio of IC50 for CV-1 and IC50 for CX-1.

EJ cells = assay: colony assay of Example 1 with human bladder carcinoma EJ cell line; format: cell-based; conditions: for Selectivity: CV-1/EJ; for EJ (IC50) / IC50: Table IV, human bladder carcinoma, 24 hours treatment; for IC50: Homo sapiens, EJ, 24 h;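 as to all read-outs here: colony formation assay with 24 h compound exposure at 37 °C, then 7–10 days drug-free regrowth, colonies stained with crystal violet, controls given medium alone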
Experimental: as §2

LOX cells = assay: colony assay of Example 1 with human melanoma LOX cell line; format: cell-based; conditions: for Selectivity: CV-1/LOX; for LOX(IC50) / IC50: Table V, human melanoma, 24 hours treatment; for IC50: Homo sapiens, LOX, 24 h;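 as to all read-outs here: colony formation assay with 24 h exposure at 37 °C, then 7 to 10 days of regrowth, crystal violet staining of colonies, control wells given medium alone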
Experimental: as §2

CRL 1420 cells = assay: colony assay of Example 1 with human pancreatic carcinoma CRL 1420 cell line; format: cell-based; conditions: for Selectivity: CV-1/CRL-1420; for CRL-1420(IC50) / IC50: Table VII, human pancreatic carcinoma, 24 hours treatment; for IC50: Homo sapiens, 24 h;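 as to all read-outs here: colony formation assay, cells exposed for 24 h then regrown 7 to 10 days without compound, colonies stained with crystal violet, control given medium alone, normal reference CV-1 monkey kidney epithelial cells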
CV-1 cells = assay: selective killing assay, colony number reduced to 50% of control, normal monkey kidney epithelial cell line CV-1; format: cell-based; conditions: 24 hours treatment; for IC50: Primates
Source text: (§1) The control received culture media only.

human melanoma LOX = assay: survival of nude mice implanted with human melanoma LOX; format: in vivo, male athymic Swiss nu/nu mouse (human tumor); conditions: for response vs control in vivo at 3 mg/kg: 3 mg/kg i.p. on day 1, 4, 8, 10, 12
Experimental: LOX, a human melanoma cell line, grown subcutaneously in nude mice was excised, trypsinized to yield a single cell suspension using a metal grid with a […] mesh. […] Five million viable trypan blue negative cells made up in 0.1 ml of Dulbecco modified Eagle medium (DMFE) were injected into the peritoneal cavity of a male athymic Swiss nu/nu mouse. The control group and each treatment group consisted of 5 to 10 mice. Treatment was commenced the following day by intraperitoneal injection.
Ten control mice received 0.25 ml of 2% dextrose on these days the treated groups were injected with the compounds of this invention. […] T/C is the ratio, expressed as a percentage of the mean survival age of the treated group to the mean survival age of the untreated control group.

MCF-7 cells = assay: colony assay of Example 1 with human breast carcinoma MCF-7 cell line; format: cell-based; conditions: for Selectivity: CV-1/MCF-7; for IC50: Homo sapiens, MCF7, 24 h, Table VI, human breast carcinoma, 24 hours treatment
Source text: as §1

[1] = Table III, normal monkey kidney epithelial cells, colony count after 7 to 10 days
[2] = 5 mg/kg i.p. on day 1, 4, 8, 11
[3] = CV-1, Table III, normal monkey kidney epithelial cells, colony count after 7 to 10 days
[4] = Mus musculus, ip, 24 h, read-out: T/C

Row | Structure (SMILES) | IC50 (EJ cells) | IC50 (LOX cells) | IC50 (CRL 1420 cells) | IC50 (MCF-7 cells) | Selectivity (ratio of IC50 for CV-1 and IC50 for CX-1) (CX-1 cells) | Selectivity (EJ cells) | Selectivity (LOX cells) | Selectivity (CRL 1420 cells) | IC50 (CX-1 cells; Homo sapiens, CX-1, Table III) | IC50 (CV-1 cells; CV-1, 24 h, Table IV) | IC50 (CV-1 cells; CV-1, 24 h, Table V) | IC50 (CV-1 cells; CV-1, 24 h, Table VI) | IC50 (CV-1 cells; CV-1, 24 h, Table VII) | IC50 (CV-1 cells; [3]) | Selectivity (MCF-7 cells) | further results
1 | CCn1c(=Cc2oc3ccccc3[n+]2C)sc(=C2Sc3ccccc3N2C)c1=O [Compound 14] |  |  |  |  | 667 | 400 | > 300 | 400 |  |  |  |  |  |  |  | CX-1 (IC50) (CX-1 cells; Table III): 0.03 µg/mL; EJ (IC50) (EJ cells): 0.05 µg/mL; LOX(IC50) (LOX cells): < 0.1 µg/mL; CRL-1420(IC50) (CRL 1420 cells): 0.05 µg/mL; CV-1 (IC50) (CV-1 cells; [1]): 20 µg/mL; CV-1 (IC50) (CV-1 cells; Table IV): 20 µg/mL; CV-1 (IC50) (CV-1 cells; Table V): > 30 µg/mL; CV-1 (IC50) (CV-1 cells; Table VII): 20 µg/mL; T/C (human melanoma LOX; [2]): 147%
2 | CCn1c(=Cc2oc3ccccc3[n+]2C)sc(=C2Sc3ccccc3N2C)c1=O [Compound 15] |  |  |  |  | 1000 | 100 | 286 | 500 |  |  |  |  |  |  |  | CX-1 (IC50) (CX-1 cells; Table III): 0.02 µg/mL; EJ (IC50) (EJ cells): 0.2 µg/mL; LOX(IC50) (LOX cells): 0.07 µg/mL; CRL-1420(IC50) (CRL 1420 cells): 0.04 µg/mL; CV-1 (IC50) (CV-1 cells; [1]): 20 µg/mL; CV-1 (IC50) (CV-1 cells; Table IV): 20 µg/mL; CV-1 (IC50) (CV-1 cells; Table V): 20 µg/mL; CV-1 (IC50) (CV-1 cells; Table VII): 20 µg/mL; T/C (human melanoma LOX; [2]): 163%
3 | CCn1c(=C2CC[n+]3c2sc2ccccc23)sc(=C2Sc3ccccc3N2C)c1=O [Compound 29] | 0.05 µg/mL | 0.03 µg/mL | 0.02 µg/mL | 0.05 µg/mL | 333 | 200 | 333 | 500 | 0.03 µg/mL | 10 µg/mL | 10 µg/mL | 10 µg/mL | 10 µg/mL | 10 µg/mL | 200 | 
4 | CCn1c(=Cc2sc3c4ccccc4ccc3[n+]2CC)sc(=C2Sc3ccc4ccccc4c3N2C)c1=O [Compound 204] |  |  |  |  | 667 |  | 222 | 500 |  |  |  |  |  |  |  | CX-1 (IC50) (CX-1 cells; Table III): 0.03 µg/mL; LOX(IC50) (LOX cells): 0.09 µg/mL; CRL-1420(IC50) (CRL 1420 cells): 0.04 µg/mL; CV-1 (IC50) (CV-1 cells; [1]): 20 µg/mL; CV-1 (IC50) (CV-1 cells; Table V): 20 µg/mL; CV-1 (IC50) (CV-1 cells; Table VII): 20 µg/mL; response vs control in vivo at 10 mg/kg (human melanoma LOX; Mus musculus, ip, 24 h, 10 mg/kg i.p. on day 1, 4, 8, 10, 12, read-out: T/C): > 270%
5 | CCn1c(=CC2=[N+](CC)CCS2)sc(=C2Oc3ccc4ccccc4c3N2C)c1=O [Compound 215] |  | 0.04 µg/mL | 0.09 µg/mL | 0.1 µg/mL | 200 |  | 500 | 222 | 0.05 µg/mL |  | 20 µg/mL | 20 µg/mL | 20 µg/mL | 10 µg/mL | 200 | response vs control in vivo at 3 mg/kg (human melanoma LOX; [4]): 167%
6 | CCn1c(=Cc2sc3ccc4ccccc4c3[n+]2CC)sc(=C2SCCN2C)c1=O [Compound 224] |  | 0.1 µg/mL |  | 0.1 µg/mL | 250 |  | 200 |  |  |  | 20 µg/mL | 20 µg/mL |  | 20 µg/mL | 200 | IC50 (CX-1 cells; CX-1, Table III): 0.08 µg/mL; response vs control in vivo at 3 mg/kg (human melanoma LOX; [4]): 161%
7 | CCn1c(=Cc2oc3cc4ccccc4cc3[n+]2CC)sc(=C2C=Cc3ccccc3N2C)c1=O [Compound 227] | 0.05 µg/mL | 0.03 µg/mL | 0.05 µg/mL | 0.05 µg/mL | 100 | 160 | 267 | 160 | 0.08 µg/mL | 8 µg/mL | 8 µg/mL | 8 µg/mL | 8 µg/mL | 8 µg/mL | 160 | 
8 | CCn1c(=Cc2cc[n+](CC)c3ccccc23)sc(=C2C=Cc3ccccc3N2C)c1=O [Compound 232] | 0.05 µg/mL | 0.02 µg/mL | 0.03 µg/mL | 0.04 µg/mL |  | 120 | 300 | 200 |  | 6 µg/mL | 6 µg/mL | 6 µg/mL | 6 µg/mL |  | 150 | response vs control in vivo at 3 mg/kg (human melanoma LOX; [4]): > 270%
9 | CCn1c(=Cc2oc3ccc4ccccc4c3[n+]2CC)sc(=C2Oc3c(ccc4ccccc34)N2C)c1=O [Compound 253] | 0.02 µg/mL | 0.005 µg/mL | 0.03 µg/mL | 0.03 µg/mL | 120 | 300 | 1200 | 200 | 0.05 µg/mL | 6 µg/mL | 6 µg/mL | 6 µg/mL | 6 µg/mL | 6 µg/mL | 200 | 
10 | CCn1c(=CC2=[N+](CC)CCS2)sc(=C2SC3=C(CCCC3)N2C)c1=O [Compound 340] |  |  |  | 0.1 µg/mL |  |  |  |  |  |  |  | 20 µg/mL |  |  | 200 | response vs control in vivo at 8 mg/kg (human melanoma LOX; Mus musculus, ip, 24 h, 8 mg/kg i.p. on day 1, 3, 8, 13, read-out: T/C): 194%

More lines, main results first:

Row | IC50 (EJ cells) | IC50 (LOX cells) | IC50 (CRL 1420 cells) | IC50 (MCF-7 cells) | Structure (SMILES) | Selectivity (ratio of IC50 for CV-1 and IC50 for CX-1) (CX-1 cells) | Selectivity (EJ cells) | Selectivity (LOX cells) | Selectivity (CRL 1420 cells) | IC50 (CX-1 cells; Homo sapiens, CX-1, Table III) | IC50 (CV-1 cells; CV-1, 24 h, Table IV) | IC50 (CV-1 cells; CV-1, 24 h, Table V) | IC50 (CV-1 cells; CV-1, 24 h, Table VI) | IC50 (CV-1 cells; CV-1, 24 h, Table VII) | IC50 (CV-1 cells; [3]) | Selectivity (MCF-7 cells) | further results
11 | 0.02 µg/mL | 0.04 µg/mL |  | 0.04 µg/mL | CCn1c(=Cc2sc3c4ccccc4ccc3[n+]2CC)sc(=C2Sc3ccccc3N2C)c1=O [Compound 31] | 333 | 500 | 250 |  | 0.03 µg/mL | 10 µg/mL | 10 µg/mL | 10 µg/mL |  | 10 µg/mL | 250 | response vs control in vivo at 5 mg/kg (human melanoma LOX; Mus musculus, ip, 24 h, 5 mg/kg i.p. on day 1, 4, 8, 11, read-out: T/C): 153%
12 | 0.007 µg/mL | < 0.01 µg/mL | 0.01 µg/mL |  | CCn1c(=Cc2oc3c4ccccc4ccc3[n+]2CC)sc(=C2Sc3ccc4ccccc4c3N2C)c1=O [Compound 85] | 750 | 857 | > 600 | 600 | 0.008 µg/mL |  |  |  |  | 6 µg/mL |  | response vs control in vivo at 5 mg/kg (human melanoma LOX; Mus musculus, ip, 24 h, 5 mg/kg i.p. on day 1, 4, 8, 11, 15, read-out: T/C): 174%
13 |  |  |  | 0.04 µg/mL | CCn1c(=Cc2sc3ccc4ccccc4c3[n+]2CC)sc(=C2Oc3ccc4ccccc4c3N2C)c1=O [Compound 116] |  |  |  |  |  |  |  | 6 µg/mL |  |  | 150 | 
14 | 0.01 µg/mL | 0.005 µg/mL | 0.005 µg/mL | 0.03 µg/mL | CCn1c(=Cc2oc3c4ccccc4ccc3[n+]2CC)sc(=C2Oc3ccc4ccccc4c3N2C)c1=O [Compound 254] | 120 | 600 | 1200 | 1200 |  | 6 µg/mL | 6 µg/mL | 6 µg/mL | 6 µg/mL |  | 200 | CX-1 (IC50) (CX-1 cells; Table III): 0.05 µg/mL
15 | 0.005 µg/mL | 0.005 µg/mL | 0.005 µg/mL |  | CCn1c(=Cc2sc3ccccc3[n+]2CC)sc(=C2Sc3ccc4ccccc4c3N2C)c1=O [Compound 310] |  | 400 | 400 | 400 |  | 2 µg/mL | 2 µg/mL |  | 2 µg/mL |  |  | response vs control in vivo at 8 mg/kg (human melanoma LOX; Mus musculus, ip, 24 h, 8 mg/kg i.p. on day 1, 3, 4, 6, 8, 10, read-out: T/C): 206%
16 |  |  |  | 0.05 µg/mL | CCn1c(=Cc2oc3c4ccccc4ccc3[n+]2CC)sc(=C2Sc3ccc4ccccc4c3N2C)c1=O [Compound 315] |  | 4000 | 4000 | 4000 |  |  |  | 20 µg/mL |  |  | 400 | EJ (IC50) (EJ cells): 0.005 µg/mL; LOX(IC50) (LOX cells): 0.005 µg/mL; CRL-1420(IC50) (CRL 1420 cells): 0.005 µg/mL
17 | 0.03 µg/mL | 0.01 µg/mL |  | 0.05 µg/mL | CCn1c(=Cc2oc3ccc4ccccc4c3[n+]2CC)sc(=C2Sc3ccccc3N2C)c1=O [Compound 337] | 100 | 267 | 800 |  | 0.08 µg/mL | 8 µg/mL | 8 µg/mL | 8 µg/mL |  | 8 µg/mL | 160 | response vs control in vivo at 5 mg/kg (human melanoma LOX; Mus musculus, ip, 24 h, 5 mg/kg i.p. on day 1, 3, 4, 6, 8, 10, 13, read-out: T/C): 137%
